Measured values reported in patent US20200163984A1, “USE OF ISOVALERYL SPIRAMYCIN I, II AND/OR III IN MANUFACTURING MEDICAMENT FOR TREATING AND/OR PREVENTING TUMOR, AND MEDICAMENT” (SHENYANG FUYANG PHARMACEUTICAL TECHNOLOGY CO., LTD., priority 2017, published 2020).

Legend:
[1] = system: transplanted tumor of human cervical cancer cell HeLa; test: HeLa transplanted tumor in nude mice
Protocol: HeLa cells in a logarithmic growth phase were taken and subjected to a trypan blue exclusion experiment showing that the cell viability was more than 95%, then the cells were subjected to trypsinization, centrifugation, and supernatant removal. Then cell concentration was adjusted to 1×10^7/ml with matrigel, then each nude mouse was inoculated subcutaneously with 0.2 ml of cells at its right armpit and recorded as the first day of inoculation. When the tumor grows to be greater than or equal to 100 mm^3, the mice were randomly divided into 11 groups with 6 mice in each group: a model group, a cyclophosphamide group, isovaleryl spiramycin I groups with doses of 25, 50 and 100 mg/kg, isovaleryl spiramycin II groups with doses of 25, 50 and 100 mg/kg, and isovaleryl spiramycin III groups with doses of 25, 50 and 100 mg/kg. Each group was continuously administered intragastrically for 30 days with a dose of 20 ml/kg. The mice were sacrificed the next day after drug withdrawal and the indicators were tested. The long diameter and short diameter of the tumor, and the body weight of each mouse were recorded every 3 days from drug administration to nude mouse sacrifice.
The body weight of the nude mice and the long diameter (a) and short diameter (b) of the transplanted tumor were measured every 3 days, and the tumor volume (v), relative tumor volume (RTV) and relative tumor proliferation rate (T/C) are calculated respectively according to the following formulas, wherein V=a×b^2/2; RTV=V/V0 (V0 is the tumor volume before administration, V is the tumor volume before sacrifice), and T/C (%)=treatment group RTV/model control group RTV×100%.
Each mouse was weighed and sacrificed. After the tumor was completely stripped off from the body of the mouse, the non-tumor tissues such as blood stains and fat were removed to weigh the tumor and calculate the tumor growth inhibition rate. The average tumor weight of each group of mice is used as an indicator of efficacy. Tumor growth inhibition rate (%)=(1−the average tumor weight of the treatment group/the average tumor weight of the model group)×100%.

[2] = system: transplanted tumor of mouse H22 liver cancer; test: Transplanted tumor of mouse H22 liver cancer; details: for Tumor Volume (mm3) (d30): d 30
Protocol: The H22 cell strains cryopreserved in liquid nitrogen were resuscitated in Kunming mice. After 3 generations, the ascites of Kunming mice were taken and placed in a 50 ml centrifuge tube in which 10 ml of 0.9% normal saline was added, and then centrifuging was performed at 1000 rpm for 5 min at room temperature, and the obtained supernatant was removed. Then 10 ml of 0.9% normal saline was added to the tube to blow and mix well, and then the mixture was diluted to 5×10^6 live cells/ml with normal saline after counting. The tube was stored in ice water, and 75% ethanol was used to disinfect the skin under the right armpits of the mice. Each Kunming mouse was soon inoculated subcutaneously with 0.2 ml of the cells at the armpit of the right forelimb.
In the H22 liver cancer model, the mice inoculated with the tumor were randomly divided into groups with 10 mice in each group on the next day of inoculation. The groups included: a model control group, a positive drug cyclophosphamide control group (CTX, 26 mg/kg), isovaleryl spiramycin I groups with doses of 13, 26 and 52 mg/kg; isovaleryl spiramycin II groups with doses of 13, 26 and 52 mg/kg; isovaleryl spiramycin III groups with doses of 13, 26 and 52 mg/kg. Each group was continuously administered intragastrically for 7 days with a dose of 20 ml/kg.
The tumor-bearing mice were weighed and sacrificed the next day after the last administration. The subcutaneous tumors were dissected and weighed. The average tumor weight of each group is calculated, and the tumor inhibition rate is calculated.
Tumor inhibition rate=(1−T/C)×100%
T: average tumor weight of the drug-administered group; C: average tumor weight of the blank control group.

[3] = Spleen index of A549 lung cancer tumor-bearing mice; details: for Spleen Index (%): n = 6
[4] = HeLa, high dose (100 mg/kg in method) i.g. 30 days
[5] = HeLa, low dose (25 mg/kg in method) i.g. 30 days
[6] = HeLa, medium dose (50 mg/kg in method) i.g. 30 days

Structure (SMILES): COC1C(OC(C)=O)CC(=O)OC(C)CC=CC=CC(OC2CCC(N(C)C)C(C)O2)C(C)CC(CC=O)C1OC1OC(C)C(OC2CC(C)(O)C(OC(=O)CC(C)C)C(C)O2)C(N(C)C)C1O (centres unmarked) [Isovaleryl spiramycin II, isovaleryl spiramycin II]
- Inhibition Rate (%) ([1]; HeLa nude mice, 12.5 mg/kg): 30.67%
- Relative Tumor Proliferation Rate (T/C) ([1]; HeLa nude mice, 12.5 mg/kg): 68.55%
- Relative Tumor Volume (RTV) ([1]; HeLa nude mice, 12.5 mg/kg): 11.36 ± 2.90
- Tumor Weight ([1]; HeLa nude mice, 12.5 mg/kg): 1.34 ± 0.60 g
- Tumor Volume (mm3) (d 1) ([1]; HeLa nude mice, 12.5 mg/kg, d1): 115.41 ± 23.27 mm3
- Tumor Volume (mm3) (d30) ([1]; HeLa nude mice, 12.5 mg/kg, d30): 1301.28 ± 391.77 mm3
- Inhibition Rate (%) ([1]; HeLa nude mice, 25 mg/kg): 42.90%
- Relative Tumor Proliferation Rate (T/C) ([1]; HeLa nude mice, 25 mg/kg): 56.07%
- Relative Tumor Volume (RTV) ([1]; HeLa nude mice, 25 mg/kg): 9.30 ± 1.74
- Tumor Weight ([1]; HeLa nude mice, 25 mg/kg): 1.10 ± 0.62 g
- Tumor Volume (mm3) (d 1) ([1]; HeLa nude mice, 25 mg/kg, d1): 125.04 ± 20.71 mm3
- Tumor Volume (mm3) (d30) ([1]; HeLa nude mice, 25 mg/kg, d30): 1184.42 ± 369.49 mm3
- Inhibition Rate (%) ([1]; HeLa nude mice, 50 mg/kg): 43.30%
- Relative Tumor Proliferation Rate (T/C) ([1]; HeLa nude mice, 50 mg/kg): 45.96%
- Relative Tumor Volume (RTV) ([1]; HeLa nude mice, 50 mg/kg): 7.62 ± 0.85
- Tumor Weight ([1]; HeLa nude mice, 50 mg/kg): 1.10 ± 0.61 g
- Tumor Volume (mm3) (d 1) ([1]; HeLa nude mice, 50 mg/kg, d1): 111.84 ± 4.83 mm3
- Tumor Volume (mm3) (d30) ([1]; HeLa nude mice, 50 mg/kg, d30): 851.58 ± 93.66 mm3
- Relative Tumor Proliferation Rate (T/C) [1, 4]: 43.30%
- tumor growth inhibition rate [1, 4]: 43.30%
- Relative Tumor Proliferation Rate (T/C) [1, 5]: 30.67%
- tumor growth inhibition rate [1, 5]: 30.67%
- tumor volume and relative tumor volume compared with the model group ([1]; HeLa, low, medium and high doses, P<0.05): significantly lower
- Relative Tumor Proliferation Rate (T/C) [1, 6]: 42.90%
- tumor growth inhibition rate [1, 6]: 42.90%
- mouse weight compared with the model group ([1]; mouse, in vivo): no significant changes
- Body Weight (g) (d1) ([1]; mouse, in vivo, 12.5 mg/kg): 20.92 ± 0.46 g
- Body Weight (g) (d30) ([1]; mouse, in vivo, 12.5 mg/kg): 21.16 ± 0.51 g
- Body Weight (g) (d1) ([1]; mouse, in vivo, 25 mg/kg): 20.87 ± 0.34 g
- Body Weight (g) (d30) ([1]; mouse, in vivo, 25 mg/kg): 21.25 ± 0.55 g
- Body Weight (g) (d1) ([1]; mouse, in vivo, 50 mg/kg): 20.77 ± 0.43 g
- Body Weight (g) (d30) ([1]; mouse, in vivo, 50 mg/kg): 21.09 ± 0.36 g
- growth of H22 liver cancer in mice ([2]; 13, 26 and 52 mg/kg i.g. 7 days): significantly inhibit
- Relative Tumor Proliferation Rate (T/C) ([2]; dose 12.5 mg/kg): 78.85
- Relative Tumor Volume (RTV) ([2]; dose 12.5 mg/kg): 7.83 ± 1.50
- Tumor Volume (mm3) (d 1) ([2]; dose 12.5 mg/kg, d 1): 120.80 ± 18.48 mm3
- Tumor Volume (mm3) (d30) ([2]; dose 12.5 mg/kg): 931.38 ± 141.51 mm3
- Inhibition Rate (%) ([2]; dose 13 mg/kg): 19.74%
- Tumor ([2]; dose 13 mg/kg): 1.22 ± 0.31 g
- Relative Tumor Proliferation Rate (T/C) ([2]; dose 25 mg/kg): 66.04
- Relative Tumor Volume (RTV) ([2]; dose 25 mg/kg): 6.56 ± 2.19
- Tumor Volume (mm3) (d 1) ([2]; dose 25 mg/kg, d 1): 118.02 ± 10.35 mm3
- Tumor Volume (mm3) (d30) ([2]; dose 25 mg/kg): 779.30 ± 292.34 mm3
- Inhibition Rate (%) ([2]; dose 26 mg/kg): 30.26%
- Tumor ([2]; dose 26 mg/kg): 1.06 ± 0.33 g
- Relative Tumor Proliferation Rate (T/C) ([2]; dose 50 mg/kg): 56.20
- Relative Tumor Volume (RTV) ([2]; dose 50 mg/kg): 5.58 ± 0.95
- Tumor Volume (mm3) (d 1) ([2]; dose 50 mg/kg, d 1): 118.18 ± 14.68 mm3
- Tumor Volume (mm3) (d30) ([2]; dose 50 mg/kg): 659.02 ± 138.35 mm3
- Inhibition Rate (%) ([2]; dose 52 mg/kg): 45.39%
- Tumor ([2]; dose 52 mg/kg): 0.83 ± 0.46 g
- Body Weight (g) (d1) ([2]; mouse, in vivo, 13 mg/kg): 24.22 ± 2.15 g
- Body Weight (g) (d 7) ([2]; mouse, in vivo, 13 mg/kg): 27.27 ± 2.20 g
- Body Weight (g) (d1) ([2]; mouse, in vivo, 26 mg/kg): 24.72 ± 1.69 g
- Body Weight (g) (d 7) ([2]; mouse, in vivo, 26 mg/kg): 27.35 ± 0.80 g
- Body Weight (g) (d1) ([2]; mouse, in vivo, 52 mg/kg): 23.45 ± 1.69 g
- Body Weight (g) (d 7) ([2]; mouse, in vivo, 52 mg/kg): 27.02 ± 0.90 g
- Spleen Index (%) ([3]; dose 13 mg/kg): 0.35 ± 0.06%
- Spleen Index (%) ([3]; dose 26 mg/kg): 0.32 ± 0.09%
- Spleen Index (%) ([3]; dose 52 mg/kg): 0.37 ± 0.06%

Structure (SMILES): O=P1(N(CCCl)CCCl)NCCCO1 (centres unmarked) [Cyclophosphamide, cyclophosphamide, reference compound]
- Inhibition Rate (%) ([1]; HeLa nude mice, 30 mg/kg): 65.74%
- Relative Tumor Proliferation Rate (T/C) ([1]; HeLa nude mice, 30 mg/kg): 36.17%
- Relative Tumor Volume (RTV) ([1]; HeLa nude mice, 30 mg/kg): 6.00 ± 1.35
- Tumor Weight ([1]; HeLa nude mice, 30 mg/kg): 0.66 ± 0.13 g
- Body Weight (g) (d1) ([1]; HeLa nude mice, 30 mg/kg, d1): 21.10 ± 0.69 g
- Tumor Volume (mm3) (d 1) ([1]; HeLa nude mice, 30 mg/kg, d1): 127.17 ± 35.82 mm3
- Body Weight (g) (d30) ([1]; HeLa nude mice, 30 mg/kg, d30): 19.73 ± 1.22 g
- Tumor Volume (mm3) (d30) ([1]; HeLa nude mice, 30 mg/kg, d30): 724.89 ± 53.90 mm3
- weight compared with the normal control group ([2]; H22, CTX 26 mg/kg i.g. 7 days): slight decrease
- tumor inhibition rate ([2]; Kunming mouse H22 liver cancer, CTX 26 mg/kg i.g. 7 days): 73.03%
- Inhibition Rate (%) ([2]; dose 26 mg/kg): 73.03%
- Tumor ([2]; dose 26 mg/kg): 0.41 ± 0.27 g
- Body Weight (g) (d1) ([2]; dose 26 mg/kg, d 1): 23.72 ± 1.79 g
- Body Weight (g) (d 7) ([2]; dose 26 mg/kg, d 7): 23.68 ± 1.32 g
- Relative Tumor Proliferation Rate (T/C) ([2]; dose 30 mg/kg): 28.78
- Relative Tumor Volume (RTV) ([2]; dose 30 mg/kg): 2.86 ± 1.44
- Tumor Volume (mm3) (d 1) ([2]; dose 30 mg/kg, d 1): 119.60 ± 31.11 mm3
- Tumor Volume (mm3) (d30) ([2]; dose 30 mg/kg): 307.34 ± 79.91 mm3
- spleen index compared with the control group ([3]; A549 tumor-bearing mice, cyclophosphamide, P<0.01): significantly lower
- Spleen Index (%) ([3]; dose 26 mg/kg): 0.21 ± 0.07 %
